Experiments:
NCI-H460 = test: Cytotoxicity against human NCI-H460 cells after 48 hrs by MTT assay; assay type: functional, cell-based; settings: NCI-H460, 48 h
MGC-803 = test: Cytotoxicity against human MGC803 cells after 48 hrs by MTT assay; assay type: functional, cell-based; settings: MGC-803, 48 h
KB = test: Cytotoxicity against human KB cells after 48 hrs by MTT assay; assay type: functional, cell-based
HeLa = test: cells; settings: Homo sapiens, 48 h
Description: Cytotoxicity against human HeLa cells after 48 hrs by MTT assay

HUVEC = test: Cytotoxicity against HUVEC after 48 hrs by MTT assay; assay type: cell-based; settings: Homo sapiens
A549 = test: cells; settings: Homo sapiens, A549, 48 h
Description: Cytotoxicity against human A549 cells after 48 hrs by MTT assay

HepG2 = test: cells; settings: Homo sapiens, HepG2, 48 h
Description: Cytotoxicity against human HepG2 cells after 48 hrs by MTT assay

HCT-116 = test: cells; settings: Homo sapiens, HCT-116, 48 h
Description: Cytotoxicity against human HCT116 cells after 48 hrs by MTT assay

CNE = test: Cytotoxicity against human CNE cells after 48 hrs by MTT assay; assay type: functional, cell-based

SMILES | IC50 (NCI-H460) [µM] | IC50 (MGC-803) [µM] | IC50 (KB) [nM] | IC50 (HeLa) [µM] | IC50 (HUVEC) [µM] | IC50 (A549) [µM] | IC50 (HepG2) [µM] | IC50 (HCT-116) [µM] | IC50 (CNE) [µM]
CCOP(=O)(OCC)C(NC(=O)COc1ccc2c(c1O)C(=O)c1ccccc1C2=O)c1ccc(C)cc1 (stereo not given) | 12.2 | 12.6 | 9370 | > 50 | > 50 | 33.8 | > 50 | 13.7 | –
CCOP(=O)(OCC)C(NC(=O)C(C)Oc1ccc2c(c1O)C(=O)c1ccccc1C2=O)c1ccc(Cl)cc1 (stereo not given) | 5.11 | 25.1 | 200 | 12.7 | 31.8 | 10.7 | 31.8 | 15.6 | 48.7
CCOP(=O)(OCC)C(NC(=O)COc1ccc2c(c1O)C(=O)c1ccccc1C2=O)c1ccccc1Cl (stereo not given) | 21.2 | 39.2 | 1550 | > 50 | > 50 | 38 | > 50 | 16.3 | –
CCOP(=O)(OCC)C(NC(=O)COc1ccc2c(c1O)C(=O)c1ccccc1C2=O)c1ccc(F)cc1 (stereo not given) | 47.9 | 30.9 | 6450 | > 50 | > 50 | 49 | > 50 | 36.3 | –
CCOP(=O)(OCC)C(NC(=O)COc1ccc2c(c1O)C(=O)c1ccccc1C2=O)c1ccc(OC)cc1 (stereo not given) | 20 | 36.1 | 7320 | > 50 | > 50 | 42.2 | > 50 | 44.9 | –
CCOP(=O)(OCC)C(NC(=O)COc1ccc2c(c1O)C(=O)c1ccccc1C2=O)c1ccccc1 (stereo not given) | 11.9 | 13 | 6700 | 18.5 | > 50 | 12.1 | 41.4 | 17.4 | –
CCOP(=O)(OCC)C(NC(=O)COc1ccc2c(c1O)C(=O)c1ccccc1C2=O)c1ccccc1Br (stereo not given) | 12 | 18.7 | 6640 | > 50 | > 50 | 35.8 | > 50 | 17.2 | –
CCOP(=O)(OCC)C(NC(=O)COc1ccc2c(c1O)C(=O)c1ccccc1C2=O)c1ccccc1OC (stereo not given) | 20.8 | 29.2 | 1240 | > 50 | > 50 | 39 | > 50 | 30.2 | –
CCOP(=O)(OCC)C(NC(=O)C(C)Oc1ccc2c(c1O)C(=O)c1ccccc1C2=O)c1cccc(Br)c1 (stereo not given) | 10.7 | 27.5 | 2290 | 11 | 23.6 | 32.8 | 23.6 | 15.7 | > 50
CCOP(=O)(OCC)C(NC(=O)C(C)Oc1ccc2c(c1O)C(=O)c1ccccc1C2=O)c1ccc(OC)cc1 (stereo not given) | 14.3 | 22.5 | 1000 | 14.7 | > 50 | 33.7 | > 50 | 13.7 | > 50
CCOP(=O)(OCC)C(NC(=O)COc1ccc2c(c1O)C(=O)c1ccccc1C2=O)c1ccccc1F (stereo not given) | 12.9 | 27.1 | 2600 | > 50 | > 50 | 37.8 | > 50 | 14.7 | –
CCOP(=O)(OCC)C(NC(=O)COc1ccc2c(c1O)C(=O)c1ccccc1C2=O)c1cccc(C)c1 (stereo not given) | 33.9 | 37.9 | 12000 | 10.6 | > 50 | 47 | 28.5 | 16 | –
CCOP(=O)(OCC)C(NC(=O)C(C)Oc1ccc2c(c1O)C(=O)c1ccccc1C2=O)c1cccc(Cl)c1 (stereo not given) | 9.1 | 29 | 220 | 12.9 | 70.8 | 18.7 | 70.8 | 36.3 | > 50
CCOP(=O)(OCC)C(NC(=O)COc1ccc2c(c1O)C(=O)c1ccccc1C2=O)c1cccc(OC)c1 (stereo not given) | 27.9 | 38 | 15500 | > 50 | > 50 | 44.1 | > 50 | 49.8 | –
O=C1c2ccccc2C(=O)c2c1ccc(O)c2O [ATHRAQUINONES A] | > 50 | 39.4 | 15600 | > 100 | > 50 | > 50 | > 50 | > 50 | > 100
CCOP(=O)(OCC)C(NC(=O)C(C)Oc1ccc2c(c1O)C(=O)c1ccccc1C2=O)c1cccc(F)c1 (stereo not given) | 25.9 | 28.9 | 9120 | > 50 | > 50 | 35.1 | > 50 | 47.1 | > 50
CCOP(=O)(OCC)C(NC(=O)C(C)Oc1ccc2c(c1O)C(=O)c1ccccc1C2=O)c1ccc(C)cc1 (stereo not given) | 28.9 | 27.9 | 990 | > 50 | > 50 | 38 | > 50 | 37 | > 50
CCOP(=O)(OCC)C(NC(=O)C(C)Oc1ccc2c(c1O)C(=O)c1ccccc1C2=O)c1ccc(F)cc1 (stereo not given) | 8.92 | 22.9 | 870 | 34.1 | 25.3 | 19.4 | 25.3 | 17.9 | > 50
CCOP(=O)(OCC)C(NC(=O)COc1ccc2c(c1O)C(=O)c1ccccc1C2=O)c1ccc(Br)cc1 (stereo not given) | 46.2 | 35.2 | 3260 | > 50 | > 50 | 45.1 | > 50 | 45.8 | –
CCOP(=O)(OCC)C(NC(=O)C(C)Oc1ccc2c(c1O)C(=O)c1ccccc1C2=O)c1cccc(OC)c1 (stereo not given) | 14.9 | 27.6 | 5780 | > 50 | > 50 | 36 | > 50 | 17 | > 50
CCOP(=O)(OCC)C(NC(=O)C(C)Oc1ccc2c(c1O)C(=O)c1ccccc1C2=O)c1ccc2ccccc2c1 (stereo not given) | 14.1 | 5.6 | 1210 | 23.6 | 38.9 | 25.2 | 38.9 | 23 | 49.4
O=c1[nH]cc(F)c(=O)[nH]1 [FLUOROURACIL] | 45.1 | 46.9 | 1230 | 23.3 | 24.1 | – | 38.3 | 10.1 | 45.1
CCOP(=O)(OCC)C(NC(=O)C(C)Oc1ccc2c(c1O)C(=O)c1ccccc1C2=O)c1ccc(Br)cc1 (stereo not given) | 7.83 | 18.5 | 260 | 10.9 | 22.2 | 30.3 | 22.2 | 12.4 | 22.2

Reference: ChEMBL document CHEMBL3297657, “Synthesis and antitumor activities of novel α-aminophosphonate derivatives containing an alizarin moiety” (Eur J Med Chem, 2014)
